Measurements published in patent publication US9605042B2, “Compositions and methods related to tauopathy” (REGENTS OF THE UNIVERSITY OF MINNESOTA, priority 2012, dated 2017).
Peptide text beside a SMILES is read from it. * marks the point of attachment. Cbz = O=C(OCc1ccccc1)*; CH2F = FC*

Tests used:
caspase-7 = target: T1, caspase-7 (Homo sapiens, UniProt P55210); assay: competitive binding assay against caspase-7 (PROMEGA-GLO 2); conditions: read-out: K value (caspase-7)
T1 sequence (P55210 24-198 limits assumed): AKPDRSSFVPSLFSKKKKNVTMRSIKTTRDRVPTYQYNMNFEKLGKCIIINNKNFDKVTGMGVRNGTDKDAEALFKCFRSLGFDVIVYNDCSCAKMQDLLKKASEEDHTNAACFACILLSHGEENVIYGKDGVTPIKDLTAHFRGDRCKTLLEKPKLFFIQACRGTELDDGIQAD
T1 sequence (P55210 207-303 limits assumed): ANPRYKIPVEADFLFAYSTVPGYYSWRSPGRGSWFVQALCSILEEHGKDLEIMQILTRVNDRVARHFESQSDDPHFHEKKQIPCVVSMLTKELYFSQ

rTg4510 neurons = assay: Excitatory synaptic transmission (mEPSCs) in rTg4510 neurons; format: cell-based, mouse; conditions: 20 μM for two hours
Method: FIG. 17. Excitatory Synaptic Transmission in rTg4510 neurons treated with caspase-2 inhibitor. (A) Mean mEPSC amplitudes of rTg4510 neurons (−/− and +/+) treated with 20 μM caspase-2 inhibitor (Ac-VDVAD-CHO; SEQ ID NO:36) for two hours. […] Caspase-2 inhibitor had no effect on rTg4510 (−/−) neurons. (B) Mean mEPSC frequency of rTg4510 neurons (−/− and +/+) treated with 20 μM caspase-2 inhibitor for two hours. Caspase-2 inhibitor had no effect on rTg4510 neurons (−/− or +/+) frequencies.
Miniature excitatory postsynaptic […] (mEPSCs) were recorded at −55 mV in artificial cerebrospinal fluid (aCSF) containing 100 LM AP7 (NMDAR antagonist, Tocris Bioscience, UK), 1 μM TTX (sodium channel blocker, Tocris Bioscience, UK) and 50 μM bicuculline (GABA receptor antagonist, Sigma-Aldrich, St. Louis, Mo.). Electrophysiology experiments were conducted using AXON DIGIDATA 1440A data acquisition system (Molecular Devices, LLC, Sunnyvale, Calif.), AXOPATCH 200B amplifier (Molecular Devices, LLC, Sunnyvale, Calif.), pCLAMP10 software (Molecular Devices. LLC, Sunnyvale, Calif.). Data was analyzed using AxoGraph X software (Berkeley, Calif.).

rat hippocampal neurons = assay: GFP-tau-containing dendritic spines in neurons coexpressing DsRed and GFP-tau; format: cell-based; conditions: rising concentration of caspase-2 inhibitor
Method: FIG. 15. Images of rat hippocampal neurons coexpressing Dsred and GFP-tagged wild-type tau or tau P301 L mutant. Neurons were treated with caspase-2 inhibitor Ac-VDVAD-CHO (SEQ ID NO:36) or caspase-3 inhibitor Ac-DEVD-CHO (SEQ ID NO:37) for 1 day.
FIG. 16. Quantification of total spines and GFP-tau-containing spines in neurons coexpressing DsRed and GFP-tau.
Based on methods described in Hoover et al., Neuron 2010, dissociated rat hippocampal primary neuron cultures were prepared. Briefly, a 25 mm glass coverslip (thickness, 0.08 mm) was glued over a 22 mm hole in the bottom of a 35 mm tissue culture dish using silicone sealant. Dissociated neuronal cultures from rat hippocampi at P1 were prepared. Neurons were plated onto prepared 35 mm tissue culture dishes at a density of 1×10^6 cells per dish. The age of cultured neurons was counted from the day of plating (1 DIV). Neurons at 7 DIV were transfected using a standard calcium phosphate precipitation method and allowed to grow to maturity (>3 weeks) to be imaged. Neurons were transfected with equivalent concentrations of constructs encoding various tau proteins. The plasmid encoding DsRed was cotransfected with tau constructs to visualize dendritic spines. Recombinant tau protein or TCP35 protein (10 μM) was directly added to culture medium 1 hour before imaging to stimulate neuronal cultures. […]

recombinant caspase-2 = target: T2, recombinant caspase-2 (Homo sapiens, UniProt P42575); assay: Screening assay: caspase-2-mediated cleavage of Asp314 peptide substrate (LabChip); format: biochemical; conditions: substrate coincubated with recombinant caspase-2 and inhibitor, fluorescence by LabChip
T2 construct: made in house
T2 sequence (P42575 170-325 limits assumed): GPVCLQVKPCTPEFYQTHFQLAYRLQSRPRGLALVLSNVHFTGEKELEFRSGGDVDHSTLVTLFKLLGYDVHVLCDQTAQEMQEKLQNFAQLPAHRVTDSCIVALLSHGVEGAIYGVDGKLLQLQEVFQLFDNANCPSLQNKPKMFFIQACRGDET
T2 sequence (P42575 348-452 limits assumed): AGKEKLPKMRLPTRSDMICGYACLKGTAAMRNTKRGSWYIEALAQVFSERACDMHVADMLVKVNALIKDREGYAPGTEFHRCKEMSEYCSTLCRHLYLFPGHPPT
Method: FIG. 10. Caspase-2-mediated cleavage of Asp314 peptide substrate. Synthetic peptide substrate FITC-AHX-GSVQIVYKPVDLSKVTS-COOH (SEQ ID NO:4) was designed based on amino acids 304-320 of tau protein that encompasses Asp314 cleavage site. The peptide substrate was cleaved by coincubating with recombinant caspase-2 and was separated from cleavage product by using LabChip drug discovery system. The fluorescence emitted by FITC group was monitored to measure peptide quantity.
FIG. 11. Caspase inhibitor blocks caspase-2-mediated cleavage of Asp314 peptide substrate. Synthetic peptide substrate was coincubated with recombinant caspase-2 in the presence of general caspase inhibitor z-VAD-fmk. The fluorescence of the substrate peptide was measured by using LabChip drug discovery system.
Unless otherwise stated, chemicals were purchased from Sigma-Aldrich (St. Louis, Mo.). Caspase-2 was made in-house; reference Caspase-2 inhibitor Z-VAD-FMK was purchased from BD Pharmingen (San Diego, Calif.). […]
Plates were screened in a LabChip 3000 (Caliper Life Sciences Inc., Hopkinton, Mass.) with temperature and relative humidity set to 20° C. and 50%. A 12-sipper chip sampled contents from each well and measured the fluorescent intensity of the substrate and product peaks. […] Data were analyzed using Caliper's HTS Well Analyzer software.

[1] = test system: recombinant caspases -1, -2, -3, -6, -7, -8, -9, or -10; assay: Caspase cleavage assay of tau proteins (immunoblot with Tau-13); format: biochemical; conditions: 50 μM inhibitor, 37° C., 2 hours, tau from three sources
Method: FIG. 5. Caspase-2 cleaves tau in vitro, producing a 35 kDa fragment. Recombinant caspases -1, -2, -3, -6, -7, -8, -9, or -10 were incubated at 37° C. for 2 hours with tau proteins derived from three different sources. […] Caspases-1 and -8 may cleave tau proteins near the N-terminus and remove Tau-13 mAb epitopes, preventing detection of proteolytic products. Arrows denote the 35 kDa fragment, and arrowheads denote the tau fragment truncated at D421.
Tau proteins (200 ng immunoprecipitates from rTg[tauP301L]4510 or rTg[tauWT]21221 brain lysates, or 1 μl synthetic proteins generated with TNT T7 Quick Coupled Transcription/Translation System [Promega Corp., Madison, Wis.]) were diluted in assay buffer (20 mM HEPES pH 7.2, 10 mM DTT, 1 mM EDTA, 0.1% CHAPS) to a final volume of 50 μl. One unit of recombinant caspase was added to the reactions in the presence or absence of 50 μM z-VAD-fmk (Calbiochem, EMD Biochemicals, San Diego, Calif.). The reactions were incubated at 37° C. for […] and stopped by adding Laemmli sample buffer (62.5 mM Tris-HCl [pH 6.8], 25% glycerol, 2% SDS, and 0.01% bromophenol blue).

## CC(=O)N[C@@H](Cc1ccc(O)cc1)C(=O)N[C@@H](CCCCN)C(=O)N1CCC[C@H]1C(=O)N[C@H](C(=O)N[C@H](C=O)CC(=O)O)C(C)C [SEQ ID NO:1, Ac-YKPVD-CHO] (Ac-YKPVD-aldehyde)
caspase-7
  Ki: > 100 µM

## Ac-VDVAD-CHO (Ac-VDVAD-aldehyde)
rTg4510 neurons
  mean mEPSC amplitude, rTg4510 (−/−) neurons: no effect
  mean mEPSC frequency, rTg4510 neurons (−/− or +/+): no effect
rTg4510 neurons; compared to vehicle
  mean amplitude of AMPA mEPSCs, rTg4510 (+/+) neurons: significantly increased
Rat hippocampal neurons
  number of spines with tau: decreases

## benzyloxycarbonyl-Val-Ala-Asp-fluoromcthylketone (Cbz-Val-Ala-Asp-CH2F) [z-VAD-fmk]
Recombinant caspase-2
  caspase-2-mediated cleavage of Asp314 peptide substrate: blocks
[1]
  cleavage of tau proteins by recombinant caspases: blocked all cleavage
